Laboratory results as given in patent publication US8507460B2, “Substituted 3′,5′-cyclic phosphates of purine nucleotide compounds and pharmaceutical compositions for the treatment of viral infections” (priority 2011, dated 2013).
Like-named read-outs stand apart in the source and are kept apart here.

Key:
[1] = Plasma and liver pharmacokinetics following a single oral dose in monkeys (Example 6); assay type: in vivo; settings: cynomolgus monkey; for AUC(0-t) / Cmax / Tmax: Cynomolgus monkeys, single oral dose (mg/kg per Table 6: 1a 10, A 25, B 10, C 10, D 50); for AUC(0-t) / Cmax: normalized to 1 μmol/kg dose; for AUC(0-t): read-out: Plasma prodrug AUC0-24; for Cmax: read-out: Plasma prodrug Cmax; for Tmax: read-out: Plasma prodrug Tmax
Description: […] Untreated animals were used for the collection of control liver. Plasma samples were collected at 1, 2, 4, 6, 8, 12 and 24 hours for all compounds and additionally at 0.5 hour (Compounds 1a, B and D), 3 and 10 hours (Compound C), and 32 and 48 hours post dose for Compound A. Terminal liver samples were collected from three animals per time point at 6, 12 and 24 hours post dose for all compounds and additionally at 2 hours (Compounds 1a, B and D), 3 hours (Compound C) and 32 and 48 hours post dose for Compound A. Liver specimens were collected from all animals immediately after the incision. Freezing forceps stored in liquid nitrogen were used to freeze the liver before excision.
(§1) Plasma samples were analyzed for the prodrug and 2′-methylguanosine (2′-MeG) or relevant nucleoside by LC-MS/MS. For protein precipitation and extraction, each plasma sample (50 μL) was treated with 500 μL of 0.2% formic acid in acetonitrile and 20 μL of an appropriate internal standard working solution. After vortexing and centrifugation, 500 μL of the sample extracts were transferred to a new plate, dried under N2 at ˜28° C. and reconstituted with 75 μL of 0.2% FA in water. The extracts were chromatographed on an Aquasil C18 column using a gradient system of 0.2% formic acid in water and acetonitrile. The analytes were detected and quantified by tandem mass spectrometry in positive ion mode on an MDS Sciex API5000 or an API4000 equipped with a Turbo Ionspray® interface. The calibration range was 0.500 (LLOQ) to 200 ng/mL in mouse plasma. The corresponding range for molar units is 1.68 to 673 pmol/mL.
(§2) Liver samples were analyzed for the active species 2′-methylguanosine triphosphate (2′-MeGTP) or relevant nucleoside triphosphate by LC-MS/MS. The triphosphate levels were assayed by homogenizing (on ice) a known weight of mouse liver with 4× volume of 0.95 M trichloroacetic acid (TCA). Appropriate internal standard solution was added to the homogenate followed by neutralization with 20% ammonium hydroxide solution and addition of 500 μL 1% formic acid. The tissue samples were extracted by weak anion exchange solid phase extraction (SPE). Post extraction, the eluates were evaporated under nitrogen, followed by reconstitution before injection onto the LC-MS/MS system. The samples were chromatographed on a Luna NH2 column using a gradient system of ammonium acetate (1 mM to 20 mM and pH 8.0 to pH 10.0) in water and acetonitrile (70:30). The analyte was detected and quantified by tandem mass spectrometry in positive ion mode on an API4000 equipped with a Turbo Ionspray® interface. The calibration range was 10 to 10000 pmol/mL in mouse liver homogenate (50 to 50000 pmol/g of mouse liver).

[2] = Plasma and liver pharmacokinetics following a single oral dose in mice (Example 6); assay type: in vivo; settings: CD-1 mice, oral 25 mg/kg, normalized to 1 μmol/kg dose; 1a average of N = 3
Description: For each compound, a single oral dose at 25 mg/kg in PEG 200 (dose volume 5 mL/kg) was administered to [CD-1] mice. Untreated animals were used for the collection of control liver. Terminal liver and plasma samples were collected from three animals per time point at 4, 12 and 24 hours post dose and additionally at 1 hour post dose in one occasion of Compound 1 (see Example 5). Liver specimens were collected from all animals immediately after the incision. Freezing forceps stored in liquid nitrogen were used to freeze the liver before excision.
as §1, §2

Compound | AUC(0-t) ([1]; in vivo) | Cmax ([1]; in vivo) | Tmax ([1]; in vivo) | also measured
CCOc1nc(N)nc2c1ncn2[C@@H]1O[C@@H]2COP(=O)(OC(C)C)O[C@H]2[C@@]1(C)F (stereo partly drawn) [Compound A, 6-ethoxy-9-((4aR,6R,7R,7aR)-7-fluoro-2-isopropoxy-7-methyl-2-oxo-tetrahydro-2,5-furo[3,2-d][1,3,2]dioxaphosphinin-6-yl)-9H-purin-2-yl amine] |  |  |  | AUC(0-t) ([1]; plasma): 410 nM·h; Cmax ([1]; plasma): 100 nM; Tmax ([1]; plasma): 120 min
COc1nc(N)nc2c1ncn2[C@@H]1O[C@H](COP(=O)(N[C@@H](C)C(=O)OCC(C)(C)C)Oc2cccc3ccccc23)[C@@H](O)[C@@]1(C)O (stereo partly drawn) [Compound B, L-Alanine, N-(2′-C-methyl-6-O-methyl-P-1-naphthalenyl-5′-guanylyl)-, 2,2-dimethylpropyl ester] | 0.2 nM·h | 0.2 nM | 30 min | 
CC(C)(CO)C(=O)SCCOP(=O)(NCc1ccccc1)OCC1OC(n2cnc3c(=O)[nH]c(N)nc32)C(C)(O)C1O (stereo not drawn) [Compound C, 2′-C-methyl-guanosine, 5′-[2-[(3-hydroxy-2,2-dimethyl-1-oxopropyl)thio]ethyl N-(phenylmethyl)phosphoramidate], reference compound] |  |  |  | Plasma prodrug Tmax ([1]; in vivo, po): 360 min; Nucleoside triphosphate in Liver AUC0-24 [2]: 290 pmol·h/g; Nucleoside triphosphate in Liver Cmax [2]: 19 pmol/g
CC(C)OC(=O)[C@H](C)N[P@](=O)(OC[C@H]1O[C@@H](n2ccc(=O)[nH]c2=O)[C@](C)(F)[C@@H]1O)Oc1ccccc1 [Compound D, L-Alanine, N—((P(S),2′R)-2′-deoxy-2′-fluoro-2′-methyl-P-phenyl-5′-uridylyl)-, 1-methylethyl ester] | 3.5 nM·h | 1.2 nM | 30 min | 
